The values that follow come from US8668921B2, “Lipase inhibitors” (Suntory Holdings Limited, priority 2004, dated 2014).

The first data set has as its target T1, porcine pancreatic lipase (Sus scrofa, UniProt P00591).
T1 construct: purchased Sigma
T1 sequence (P00591 1-450): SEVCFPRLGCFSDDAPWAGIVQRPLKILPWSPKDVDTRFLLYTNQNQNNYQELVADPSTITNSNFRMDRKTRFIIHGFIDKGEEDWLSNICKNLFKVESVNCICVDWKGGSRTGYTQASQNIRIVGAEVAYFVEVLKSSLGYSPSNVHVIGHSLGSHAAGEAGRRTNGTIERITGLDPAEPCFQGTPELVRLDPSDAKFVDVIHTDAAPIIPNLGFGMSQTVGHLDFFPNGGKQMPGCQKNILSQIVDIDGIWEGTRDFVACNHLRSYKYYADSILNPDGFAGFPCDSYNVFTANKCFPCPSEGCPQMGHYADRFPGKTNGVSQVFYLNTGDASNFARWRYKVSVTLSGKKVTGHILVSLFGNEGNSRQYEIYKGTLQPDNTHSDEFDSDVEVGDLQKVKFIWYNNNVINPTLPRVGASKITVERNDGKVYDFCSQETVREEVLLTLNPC
Nature of the data set: Lipase inhibitory activity assay (4-MUO fluorescent substrate). The format is biochemical. As to conditions: method of Example 1.
Protocol: A lipase activity assay was performed by using the oleate ester of fluorescent 4-methylumbelliferone (4-MUO) as a substrate to measure the fluorescence of 4-methylumbelliferone produced by reaction.
The buffer used for the assay was 13 mM Tris-HCl (pH 8.0) containing 150 mM NaCl, 1.36 mM CaCl2. The enzyme assay was performed using a 0.1 M solution of the substrate 4-MUO (Sigma) in DMSO diluted 1:1000 in said buffer and a solution of porcine pancreatic lipase (Sigma) prepared at 400 U/ml also in said buffer.
An enzymatic reaction was started by adding 25 μl of the lipase/buffer solution after 50 μl of the 4-MUO/buffer solution and 25 μl of distilled water (or an aqueous solution of each sample) were added and mixed in a 96-well microplate at 25° C. After the reaction was performed for 30 minutes, the reaction was stopped by adding 100 μl of a 0.1 M citrate buffer (pH 4.2) and the fluorescence of 4-methylumbelliferone produced by the reaction (excitation 355 nm, emission 460 nm) was measured using a fluorescence plate reader (Fluoroskan Asent CF from Labsystems).
The inhibitory activity of each test sample was determined as IC50(μM), i.e. the amount of the sample giving 50% inhibition of the activity of the control (distilled water).
For the molecule “(−)-epigallocatechin 3-O-gallate [(−)-epigallocatechin 3-O-gallate (4)]”, the “lipase inhibitory activity (in words)” value is given as “strongest activity among the major catechins”.

The data set is the same for the next values; noted with them: porcine pancreatic lipase, 4-MUO substrate, 25° C., 30 minutes, pH 8.0.
The IC50 is the midpoint of a concentration-inhibition curve. A higher IC50 goes with lower potency. On to `Oc1cc(O)c2c(c1)O[C@H](c1cc(O)c(O)c(O)c1)[C@H](O)C2` [(−)-epigallocatechin (3), (−)-epigallocatechin], for which the IC50 is more than 20400 nM.

Molecule “(−)-epigallocatechin 3-O-gallate [(−)-epigallocatechin 3-O-gallate (4)]” registered an IC50 of 284 nM.

Molecule `Oc1cc(O)c2c(c1)O[C@H](c1ccc(O)c(O)c1)[C@H](O)C2` [(−)-epicatechin (1), (−)-epicatechin] displayed a half-inhibitory concentration (IC50) of more than 21600 nM.

Molecule `O=C(O[C@@H]1Cc2c(O)cc(O)cc2O[C@@H]1c1cc(O)c(O)c(O)c1-c1c([C@H]2Oc3cc(O)cc(O)c3C[C@H]2O)cc(O)c(O)c1O)c1cc(O)c(O)c(O)c1` [theasinensin B (12), theasinensin B] had an IC50 of 276 nM. In other words, the sub-micromolar range.

As for `O=C1C=C2c3c(cc(O)c4c3O[C@H](c3ccc(O)c(O)c3)[C@@H](O)C4)OC23C[C@]1(O)O[C@H]1Cc2c(O)cc(O)cc2O[C@@H]13` [dehydro-dicatechin A (14), dehydro-dicatechin A], the 50% inhibitory concentration (IC50) came out at 3090 nM. Compared with the last molecule, the IC50 is about 11-fold higher.

For `O=C(O[C@@H]1Cc2c(O)cc(O)cc2O[C@@H]1c1ccc(O)c(O)c1)c1cc(O)c(O)c(O)c1` [(−)-epicatechin 3-O-gallate (2), (−)-epicatechin 3-O-gallate], the midpoint of inhibition, the IC50, lay at 271 nM.

`Oc1cc(O)c2c(c1)O[C@H](c1cc(O)c(O)c(O)c1)[C@@H](O)C2` [(+)-gallocatechin (7), (+)-gallocatechin] returned an IC50 of more than 163000 nM.

As for `O=c1c(O)cc([C@H]2Oc3cc(O)cc(O)c3C[C@H]2O)cc2c([C@H]3Oc4cc(O)cc(O)c4C[C@H]3O)cc(O)c(O)c12` [theaflavin (15), theaflavin], the concentration for half-maximal inhibition (IC50) was 106 nM.

`O=C(O[C@@H]1Cc2c(O)cc(O)cc2O[C@H]1c1cc(O)c(O)c(O)c1)c1cc(O)c(O)c(O)c1` [(−)-gallocatechin 3-O-gallate (8), (−)-gallocatechin 3-O-gallate] had an IC50 of 349 nM.

For the molecule `O=C(O[C@@H]1Cc2c(O)cc(O)cc2O[C@@H]1c1cc(O)c(O)c(O)c1-c1c([C@H]2Oc3cc(O)cc(O)c3C[C@H]2OC(=O)c2cc(O)c(O)c(O)c2)cc(O)c(O)c1O)c1cc(O)c(O)c(O)c1` [theasinensin A (11), theasinensin A], the IC50 is 142 nM.

Turning to `O=C(O[C@@H]1Cc2c(O)cc(O)cc2O[C@@H]1c1cc(O)c(O)c(O)c1-c1c([C@H]2Oc3cc(O)cc(O)c3C[C@H]2OC(=O)c2cc(O)c(O)c(O)c2)cc(O)c(O)c1O)c1cc(O)c(O)c(O)c1` [theasinensin D (13), theasinensin D], half-maximal inhibition (IC50) was put at 98 nM. The IC50 values of the last two molecules are within 1.5-fold of each other.

For `O=C(O[C@@H]1Cc2c(O)cc(O)cc2O[C@@H]1c1cc(O)c(O)c2c(=O)c(O)cc([C@H]3Oc4cc(O)cc(O)c4C[C@H]3O)cc12)c1cc(O)c(O)c(O)c1` [theaflavin 3′-O-gallate (16), theaflavin 3′-O-gallate], the half-inhibitory concentration (IC50) came to 112 nM.

In the case of `Oc1cc(O)c2c(c1)OC(c1ccc(O)c(O)c1)C(O)C2` (single isomer, unassigned; (+)) [(+)-catechin (5), (+)-catechin], the IC50 is more than 690000 nM.

On to `O=C(OC1Cc2c(O)cc(O)c(C(c3cc(O)c(O)c(O)c3)C(Cc3c(O)cc(O)cc3O)OC(=O)c3cc(O)c(O)c(O)c3)c2OC1c1cc(O)c(O)c(O)c1)c1cc(O)c(O)c(O)c1` (stereo not drawn) [assamicain A (9), assamicain A], for which the 50% inhibitory concentration (IC50) turned out to be 120 nM.

The molecule `O=C(OC1Cc2c(O)cc(O)c(C(c3cc(O)c(O)c(O)c3)C(Cc3c(O)cc(O)cc3O)OC(=O)c3cc(O)c(O)c(O)c3)c2OC1c1cc(O)c(O)c(O)c1)c1cc(O)c(O)c(O)c1` (stereo not drawn) [assamicain B (10), assamicain B] registered a concentration for half-maximal inhibition (IC50) of 186 nM.

Tested on in the next data set: not given
Test: not given
The conditions noted are these: reported in the literature; cited from earlier work.
With `CCCCCCCCCCC[C@@H](C[C@@H]1OC(=O)[C@H]1CCCCCC)OC(=O)[C@H](CC(C)C)NC=O` [Xenical], the adverse side effects entry was “fatty stools, increased stool frequency, loose stools, diarrhea and abdominal pain”.

Turning to `OC1(c2ccc(Cl)cc2)c2ccccc2C2=NCCN21` (stereo not drawn) [Mazindol], the adverse side effects entry is “dry mouth, constipation, stomach discomfort and nausea/vomiting”.
